Results: US9771342B2, “Monascuspurpurones, preparation process thereof, and uses of the monascuspurpurones” (Food Industry Research and Development Institute, priority 2010, dated 2017)

Legend:
3T3-L1 cells = assay: Quantitative real-time PCR of adipocyte differentiation related gene expression; type: cell-based
Procedure: The upstream genes that regulate adipocyte differentiation have been previously reported (F. M. Gregoire, C. M. Smas and H. S. Sul, Understanding adipocyte differentiation. Physiological Reviews, 783 (1998), pp. 783-809.) Among them, aP2, LPL, PPARγ, adiponectin, GLUT4, GLUT1, and C/EBPα were assayed to monitor the regulation of 3T3-L1 preadipocyte differentiation. The housekeeping genes of β-actin and Glyceraldehyde 3-phosphate dehydrogenase (GADPH) were used as control. “do” represents the conditions of the 3T3-L1 preadipocytes before adding inducing agents. In the “NC” groups, the 3T3-L1 preadipocytes were not treated with any inducing agent. Both “do” and “NC” groups were the control groups. In the groups of “insulin,” “E,” and “troglitazone,” the 3T3-L1 preadipocytes were induced with insulin, Compound 1 and insulin, and troglitazone, respectively.
After culturing the 3T3-L1 cells for 9 days, insulin, Compound 1 and insulin, and troglitazone were added to the medium. The cells were further cultivated, and the samples were collected on day 4 (early adipocyte differentiation stage), day 7 (middle stage) and day 9 (late stage) for the following assays.
Total RNA was extracted from 3T3-L1 cells using TRIZOL reagent according to the manufacturer's instructions (GIBCO 15596-026; Molecular Research Center, Inc). 4 μg of total RNA from each sample were reverse-transcribed to cDNA according to the protocol of the reverse transcript system [RevertAid H Minus First Strand cDNA Synthesis Kit (Fementas K1632)] with the oligo (dT)18 primers. A TaqMan One-Step RT-PCR Master Mix reagent kit and inventory primer and probes (Applied Biosystems, Foster, Calif.) were applied for the quantitative real-time PCR followed by a TaqMan gene expression assay. The sequences aP2 (Mm00445878_ml), LPL (Mm00434770_ml), PPARγ (Mm01184322_ml), adiponectin (Mm00456425_ml), GLUT4 (Mm01245502_ml), GLUT1 (Mm01192270_ml), C/EBPα (Mm01265914_sl), C/EBPδ (Mm00786711_sl), β-actin (Mm01205647_gl) and GADPH (Mm99999915_gl) were amplified in the PCR. Levels of mRNAs for housekeeping genes (β-actin and GADPH) were also measured by the real-time PCR. After cDNA synthesis, the quantitative real-time PCR was performed with the ABI Prism 7300 instrument (Applied Biosystems, Foster City, Calif., USA) according to the manufacturer's protocol. The PCR conditions were 1 cycle of 50 ° C. for 2 min, then 95 ° C. for 10 min, followed by 40 cycles of 95 ° C. for 15 seconds and 60 ° C. for 1 min. The quantification was performed in duplicate and the experiments were repeated independently three times.

3T3-L1 preadipocytes = assay: Enhancement of 3T3-L1 preadipocyte differentiation in insulin differentiation model (AdipoRed staining / triglyceride); type: cell-based; settings: for Oil Red assay (% of control): insulin model, 3T3-L1 differentiation
Procedure: Preadipocytes were prepared according to the method described by Wald et al., (2007, “The small molecule harmine is an antidiabetic cell-type-specific regulator of PPARγ expression.” Cell Metabolism, 5(5): 357-370). Preadipocytes were cultured in DMEM (Dulbecco's Modified Eagle's Medium-high glucose, Sigma D-7777) containing 10% of fetal bovine serum (FBS) and incubated at 37° C. in a 5% CO2 incubator.
Before the differentiation induction experiments, the cells were plated into either 96- or 24-well plates (the concentration of cells in each well was about 2×10^4/cm^2). The plates were incubated for about two days to allow the cells to proliferate to confluence, and then maintained for another two days. The medium was changed to different differentiation media according to different experiments. The day of switching to differentiation medium was designated as day zero.
The differentiation medium used in insulin differentiation model was DMEM with 10% FBS comprising 10 μg/ml of insulin. Differentiation media with various concentrations of Compound 1 were added to each well of the 24- or 96-well 3T3-L1 preadipocyte plates (the final concentration of Compound 1 in each well was 2 μg/ml, 5 μg/ml, 10 μg/ml, and 20 μg/ml, respectively). The control group was the culture with only the differentiation medium and no sample. The cultures were incubated at 37° C. in a 5% CO2 incubator for seven days (during the period, the differentiation medium and sample were replaced with fresh ones twice), and then the medium was replaced by DMEM with 10% FBS. The cultures were maintained until day 9 or day 10 . The cells of the experiment groups and control groups at day 9 or day 10 were stained with AdipoRed and the concentrations of triglyceride were analyzed.
The 96-well plates were rinsed with PBS, and 200 μl of PBS and 5 μl of AdipoRed reagent (Lonze Walkersville, Inc., Walkersville, Md., USA, Catalog No. PT-7009) were added to each well. After 10 to 15 minutes, the plates were read with a spectrofluorometer (Infinite M200) set at an excitation wavelength of 485 nm and an emission wavelength of 572 nm. The fluorescent data of the experiment group was divided by the fluorescent data of the control group to obtain a percentage of induction activity.
The 24-well plates were rinsed with PBS, and the cells were washed off with 0.1 ml of 1% Triton X 100 per well. The cells were then frozen, thawed and centrifuged (10,000 rpm/5 min) and the supernatant was collected. An aliquot of 0.05 ml of the supernatant was analyzed using Triglycerol assay Kit (Audit Diagnostics, Ltd.).
The protein amounts were analyzed using Bio-Rad Dc Protein assay reagent (Bio-Rad). […]

PPARγ-LBD = molecular target: T1, PPARγ-LBD (Homo sapiens, UniProt P37231); assay: LanthaScreen TR-FRET PPAR Competitive Binding Assay; settings: tested at 10-160 μg/ml, 2 hours at room temperature
T1 construct: 10 μL 4× PPARγ-LBD/Tb-anti-GST Ab; purchased Invitrogen PV4894
T1 sequence (P37231 238-503 limits assumed): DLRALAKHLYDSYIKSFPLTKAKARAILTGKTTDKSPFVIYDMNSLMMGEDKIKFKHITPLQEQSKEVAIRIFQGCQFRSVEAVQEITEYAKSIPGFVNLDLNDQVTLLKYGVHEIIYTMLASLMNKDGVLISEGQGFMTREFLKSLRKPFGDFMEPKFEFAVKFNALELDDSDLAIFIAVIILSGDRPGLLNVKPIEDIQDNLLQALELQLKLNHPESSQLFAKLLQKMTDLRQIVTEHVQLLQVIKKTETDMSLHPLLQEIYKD
Procedure: 10, 20, 40, 80 and 160 μg/ml of Compound 1 were tested in the ligand binding assay conducted following the manuals described in LanthaScreen TR-FRET PPAR Competitive Binding Assay kits (Invitrogen New York, N.Y. Catalog no. PV4894). In a 96-well microtiter plate, the reagents were pipetted into each well in the following order: 20 μL 2× Test Compound, 10 μL 4× Fluormone™ Pan-PPAR Green and 10 μL 4× PPARγ-LBD/Tb-anti-GST Ab in a total assay volume of 40 μl/well. The reagents were gently mixed by placing the microtiter plate on an orbital plate shaker for 30 seconds. The samples were incubated at room temperature (20-25° C.) for 2 hours in the dark allowing the binding of the samples to reach equilibrium. The fluorescent emission signal of each well was measured at 495 nm and 520 nm with an Absorbance Microplate Reader (Spectra Max M5 from Molecular Devices LLC).

[1] = day 4 (early stage), Compound 1 and insulin vs insulin group
[2] = day 7 (middle stage), Compound 1 and insulin vs insulin group
[3] = day 9 (late stage), Compound 1 and insulin vs insulin group
[4] = early, middle and late adipocyte differentiation stages

rel-(1S,7aR,3aR)-1-Hexanoyl-5,13-dimethyl-6-(2-oxopentyl)-7a,7-dihydrobenzofuran-2,4-dione [Compound 1]
expression of C/EBPα, increase compared to insulin group (3T3-L1 cells; [1]): about 50% | expression of GluT1 relative to insulin group (3T3-L1 cells; [1]): 0.6 fold | expression of PPARγ, increase compared to insulin group (3T3-L1 cells; [1]): about 50% | expression of adiponectin, increase compared to insulin group (3T3-L1 cells; [1]): about 50% | expression of GluT1 relative to insulin group (3T3-L1 cells; [2]): 0.3 fold | expression of LPL relative to insulin group (3T3-L1 cells; [2]): 0.3 fold | expression of PPARγ relative to insulin group (3T3-L1 cells; [2]): 1.8 fold | expression of aP2 relative to insulin group (3T3-L1 cells; [2]): 0.3 fold | expression of GluT1 relative to insulin control (3T3-L1 cells; day 9 (late stage), Compound 1 and insulin vs insulin control): 0.6 fold | expression of C/EBPα relative to insulin group (3T3-L1 cells; [3]): 1.59 folds | expression of PPARγ relative to insulin group (3T3-L1 cells; [3]): 1.35 folds | expression of adiponectin relative to insulin group (3T3-L1 cells; [3]): 1.49 folds | effect on the expression of aP2, LPL, adiponectin, GLUT4, and GLUT1 (3T3-L1 cells; [4]): little effect | effect on the expressions of PPARγ and C/EBPα (3T3-L1 cells; [4]): can stimulate the expressions of PPARγ and C/EBPα | Oil Red assay (% of control) (3T3-L1 preadipocytes; 2 μg/ml): 127 ± 4 % of control | Oil Red assay (% of control) (3T3-L1 preadipocytes; 5 μg/ml): 140 ± 5 % of control | Oil Red assay (% of control) (3T3-L1 preadipocytes; 10 μg/ml): 148 ± 8 % of control | triglyceride droplets in differentiated adipocytes, inverted microscope (3T3-L1 preadipocytes; 2, 5 and 10 μg/ml vs control culture (insulin only), FIG. 4): more triglyceride droplets than the control culture | PPARγ binding IC50 (PPARγ-LBD): 68 ± 21 µg/mL
